{
  "source": "ChEMBL document CHEMBL1697723",
  "about": "“A predictive ligand-based Bayesian model for human drug-induced liver injury” (Drug Metab Dispos, 2010)",
  "data": [
    {"tested_on": "Hepatotoxicity", "experiment": "(§1) Human drug-induced liver injury (DILI) modelling dataset from Ekins et al", "conditions": "not given", "values": [
      {"smiles": "O=[As][As+](=O)[O-]", "note": "(stereo not drawn) [ARSENIC TRIOXIDE]", "Hepatotoxicity": "DILI positive (test set)"},
      {"smiles": "NC1=NC(=O)C(c2ccccc2)O1", "note": "(stereo not drawn) [PEMOLINE]", "Hepatotoxicity": "DILI positive (test set)"},
      {"smiles": "CCc1nn(CCCN2CCN(c3cccc(Cl)c3)CC2)c(=O)n1CCOc1ccccc1", "note": "[NEFAZODONE]", "Hepatotoxicity": "DILI positive (test set)"},
      {"smiles": "CCO.C[C@H]1c2cccc(O)c2C(=O)C2=C(O)[C@]3(O)C(=O)C(C(N)=O)=C(O)[C@@H](N(C)C)[C@@H]3[C@@H](O)[C@@H]21.Cl.O", "Hepatotoxicity": "DILI positive (training set)"},
      {"smiles": "CCOC(=O)C(C)(C)Oc1ccc(Cl)cc1", "note": "[CLOFIBRATE]", "Hepatotoxicity": "DILI positive (test set)"},
      {"smiles": "CNC(=O)Oc1ccc2c(c1)[C@]1(C)CCN(C)[C@@H]1N2C", "note": "[PHYSOSTIGMINE]", "Hepatotoxicity": "DILI negative (training set)"},
      {"smiles": "C#C[C@]1(O)CC[C@H]2[C@@H]3CCc4cc(O)ccc4[C@H]3CC[C@@]21C", "note": "[ETHINYL ESTRADIOL]", "Hepatotoxicity": "DILI positive (test set)"},
      {"smiles": "CC(=O)OCC1=C(C(=O)[O-])N2C(=O)[C@@H](NC(=O)Cc3cccs3)[C@H]2SC1.[Na+]", "note": "[CEPHALOTHIN SODIUM]", "Hepatotoxicity": "DILI positive (test set)"},
      {"smiles": "NC(=O)NO", "note": "[HYDROXYUREA]", "Hepatotoxicity": "DILI positive (training set)"},
      {"smiles": "CC(=O)O[C@]1(C(C)=O)CC[C@H]2[C@@H]3C=C(Cl)C4=CC(=O)[C@@H]5C[C@@H]5[C@]4(C)[C@H]3CC[C@@]21C", "note": "[CYPROTERONE ACETATE]", "Hepatotoxicity": "DILI positive (training set)"},
      {"smiles": "CCN(CC)CCNc1ccc(CO)c2sc3ccccc3c(=O)c12", "note": "[HYCANTHONE]", "Hepatotoxicity": "DILI positive (training set)"},
      {"smiles": "CCN(CC)C(=O)N1CCN(C)CC1", "note": "[DIETHYLCARBAMAZINE]", "Hepatotoxicity": "DILI positive (training set)"},
      {"smiles": "Cl.Nc1ccc(/N=N/c2ccccc2)c(N)n1", "note": "[PHENAZOPYRIDINE HYDROCHLORIDE]", "Hepatotoxicity": "DILI positive (training set)"},
      {"smiles": "CC[C@H]1OC(=O)[C@H](C)[C@@H](O[C@H]2C[C@@](C)(OC)[C@@H](O)[C@H](C)O2)[C@H](C)[C@@H](O[C@@H]2O[C@H](C)C[C@H](N(C)C)[C@H]2O)[C@](C)(O)C[C@@H](C)CN(C)[C@H](C)[C@@H](O)[C@]1(C)O", "note": "[AZITHROMYCIN]", "Hepatotoxicity": "DILI negative (test set)"},
      {"smiles": "CC(COc1ccccc1)NC(C)C(O)c1ccc(O)cc1.Cl", "note": "(stereo not drawn) [ISOXSUPRINE HYDROCHLORIDE]", "Hepatotoxicity": "DILI negative (training set)"},
      {"smiles": "Nc1ncnc2c1ncn2[C@@H]1O[C@H](CO)[C@@H](O)[C@H]1O", "note": "[ADENOSINE]", "Hepatotoxicity": "DILI negative (training set)"},
      {"smiles": "C[C@H](CCC(=O)O)[C@H]1CC[C@H]2[C@@H]3CC[C@@H]4C[C@H](O)CC[C@]4(C)[C@H]3CC[C@]12C", "note": "[LITHOCHOLIC ACID]", "Hepatotoxicity": "DILI positive (training set)"},
      {"smiles": "COc1cc(C(=O)NS(=O)(=O)c2ccccc2C)ccc1Cc1cn(C)c2ccc(NC(=O)OC3CCCC3)cc12", "note": "[ZAFIRLUKAST]", "Hepatotoxicity": "DILI positive (training set)"},
      {"smiles": "Nc1nc(NC2CC2)c2ncn([C@H]3C=C[C@@H](CO)C3)c2n1", "note": "[ABACAVIR]", "Hepatotoxicity": "DILI positive (test set)"},
      {"smiles": "O=[N+]([O-])O[C@H]1CO[C@H]2[C@@H]1OC[C@H]2O[N+](=O)[O-]", "note": "[ISOSORBIDE DINITRATE]", "Hepatotoxicity": "DILI negative (test set)"},
      {"smiles": "CCN1CCN(C(=O)N[C@@H](C(=O)N[C@@H]2C(=O)N3C(C(=O)O)=C(CSc4nnnn4C)CS[C@H]23)c2ccc(O)cc2)C(=O)C1=O.O.O", "note": "[CEFOPERAZONE DIHYDRATE]", "Hepatotoxicity": "DILI negative (training set)"}
    ]},
    {"tested_on": "Hepatotoxicity", "experiment": "as §1", "conditions": "Liver", "values": [
      {"smiles": "CN[C@@H]1[C@H](O[C@H]2[C@H](O[C@H]3[C@H](O)[C@@H](O)[C@H](N=C(N)N)[C@@H](O)[C@@H]3N=C(N)N)O[C@@H](C)[C@]2(O)C=O)O[C@@H](CO)[C@H](O)[C@H]1O.CN[C@@H]1[C@H](O[C@H]2[C@H](O[C@H]3[C@H](O)[C@@H](O)[C@H](N=C(N)N)[C@@H](O)[C@@H]3N=C(N)N)O[C@@H](C)[C@]2(O)C=O)O[C@@H](CO)[C@H](O)[C@H]1O.O=S(=O)(O)O.O=S(=O)(O)O.O=S(=O)(O)O", "note": "[STREPTOMYCIN SULFATE]", "Hepatotoxicity": "DILI negative (training set)"},
      {"smiles": "CCN(CC)Cc1cc(Nc2ccnc3cc(Cl)ccc23)ccc1O.Cl.Cl.Cl", "Hepatotoxicity": "DILI positive (test set)"}
    ]}
  ]
}
